Test results taken from patent US20260265233A1, “BENZOTHIOPHENE DERIVATIVES AS RXFP1 AGONISTS” (BRISTOL-MYERS SQUIBB COMPANY, priority 2021, published 2026).
pEC50: −log10 of the molar value.

target: T1, human RXFP1 (Homo sapiens, UniProt Q9HBX9); experiment: hRXFP1 HEK293 cAMP assay (HTRF); format: cell-based; details: HEK293 cells stably expressing human RXFP1; 30 min at rt; intracellular cAMP by HTRF
T1 construct: expressed in transfected cells
T1 sequence (Q9HBX9 1-757): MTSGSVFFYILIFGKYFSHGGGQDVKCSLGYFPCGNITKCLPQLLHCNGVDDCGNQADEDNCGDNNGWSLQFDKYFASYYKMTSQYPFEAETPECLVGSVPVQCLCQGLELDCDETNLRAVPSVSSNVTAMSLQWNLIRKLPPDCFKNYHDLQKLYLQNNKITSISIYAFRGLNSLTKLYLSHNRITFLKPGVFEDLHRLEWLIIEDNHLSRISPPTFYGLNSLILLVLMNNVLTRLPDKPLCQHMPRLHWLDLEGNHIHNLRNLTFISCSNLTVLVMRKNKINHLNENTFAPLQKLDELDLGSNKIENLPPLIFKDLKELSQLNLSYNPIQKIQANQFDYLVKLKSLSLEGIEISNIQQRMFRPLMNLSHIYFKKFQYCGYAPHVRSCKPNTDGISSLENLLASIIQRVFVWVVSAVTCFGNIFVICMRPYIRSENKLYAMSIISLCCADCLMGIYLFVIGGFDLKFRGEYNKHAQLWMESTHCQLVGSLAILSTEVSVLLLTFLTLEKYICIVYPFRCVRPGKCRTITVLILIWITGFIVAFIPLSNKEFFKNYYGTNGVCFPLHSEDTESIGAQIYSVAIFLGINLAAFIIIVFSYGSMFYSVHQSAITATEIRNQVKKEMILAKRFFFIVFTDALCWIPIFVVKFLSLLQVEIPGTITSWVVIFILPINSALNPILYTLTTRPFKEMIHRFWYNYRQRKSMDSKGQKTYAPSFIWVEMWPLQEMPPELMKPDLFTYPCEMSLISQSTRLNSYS
In short: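 Agonism is measured as cAMP by HTRF, quantified from a standard curve via the 665/590 nm ratio and fitted with a four-parameter logistic equation. Compounds (0.010 nM to 50 μM final, 2% DMSO) were applied for 30 min at rt to human RXFP1-expressing HEK293 cells in assay buffer containing 0.5 mM IBMX.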

pEC50	SMILES
5.86	COc1ccc(CNCC(C)(C)O)cc1C(=O)Nc1c(C(=O)Nc2ccc(F)c(C(F)(F)F)c2)sc2cc(C(F)(F)F)ccc12 [Example 236, N-(4-fluoro-3-(trifluoromethyl)phenyl)-3-(5-(((2-hydroxy-2-methylpropyl)amino)methyl)-2-methoxy-benzamido)-6-(trifluoromethyl) benzo[b] thiophene-2-carboxamide]
5.42	COc1ccc(C(=O)NCC(C)(C)O)cc1C(=O)Nc1c(C(=O)Nc2ccc(F)c(C(F)(F)F)c2)sc2cc(C(F)(F)F)ccc12 [Example 237, N3-(2-((4-fluoro-3-(trifluoromethyl)phenyl)carbamoyl)-6-(trifluoromethyl)benzo[b]thiophen-3-yl)-N1-(2-hydroxy-2-methylpropyl)-4-methoxy-isophthalamide]
5.85	COc1ccc(C(=O)N2CC3(COC3)C2)cc1C(=O)Nc1c(C(=O)Nc2ccc(F)c(C(F)(F)F)c2)sc2cc(C3CC3)ncc12 [Example 238, 6-cyclopropyl-N-(4-fluoro-3-(trifluoromethyl)phenyl)-3-(2-methoxy-5-(2-oxa-6-azaspiro[3.3]heptane-6-carbonyl)benzamido) thieno[3,2-c]pyridine-2-carboxamide]
5.48	COc1ccc(C(=O)N2CC(C)(C)C2)cc1C(=O)Nc1c(C(=O)Nc2ccc(F)c(C(F)(F)F)c2)sc2cc(Cl)ncc12 [Example 240, 6-chloro-3-(5-(3,3-dimethyl-azetidine-1-carbonyl)-2-methoxy-benzamido)-N-(4-fluoro-3-(trifluoromethyl)phenyl)thieno [3,2-c]pyridine-2-carboxamide]
5.41	COc1ccc(C(=O)N2CCC(O)CC2)cc1C(=O)Nc1c(C(=O)Nc2ccc(F)c(C(F)(F)F)c2)sc2cc(Cl)ncc12 [Example 241, 6-chloro-N-(4-fluoro-3-(trifluoromethyl)phenyl)-3-(5-(4-hydroxy-piperidine-1-carbonyl)-2-methoxy-benzamido) thieno[3,2-c]pyridine-2-carboxamide]
6.14	COc1ccc(C2=NOC3CNCC23)cc1C(=O)Nc1c(C(=O)Nc2ccc(F)c(C(F)(F)F)c2)sc2cc(C(F)(F)F)ccc12 (centres unmarked) [Example 246, N-(4-fluoro-3-(trifluoromethyl)phenyl)-3-(2-methoxy-5-(3a,5,6,6a-tetrahydro-4H-pyrrolo[3,4-d]isoxazol-3-yl)benzamido)-6-(trifluoromethyl) benzo[b] thiophene-2-carboxamide]
6.27	COc1ccc(C2=NOC3CNCC23)cc1C(=O)Nc1c(C(=O)Nc2ccc(F)c(C(F)(F)F)c2)sc2cc(C(F)(F)F)ccc12 (centres unmarked) [Example 247, N-(4-fluoro-3-(trifluoromethyl)phenyl)-3-(2-methoxy-5-(3a,5,6,6a-tetrahydro-4H-pyrrolo[3,4-d]isoxazol-3-yl)benzamido)-6-(trifluoromethyl) benzo[b] thiophene-2-carboxamide]
6.65	COc1ccc(C2=NOC3(CCOC3=O)C2)cc1C(=O)Nc1c(C(=O)Nc2ccc(F)c(C(F)(F)F)c2)sc2cc(C(F)(F)F)ccc12 (centres unmarked) [Example 251, N-(4-fluoro-3-(trifluoromethyl)phenyl)-3-(2-methoxy-5-(6-oxo-1,7-dioxa-2-azaspiro[4.4]non-2-en-3-yl)benzamido)-6-(trifluoromethyl) benzo[b] thiophene-2-carboxamide]
6.62	O=C(Nc1c(C(=O)Nc2ccc(F)c(C(F)(F)F)c2)sc2cc(C(F)(F)F)ccc12)c1cc(C2=NOC3COCC23)ccc1F (centres unmarked) [Example 256, 3-(5-{3aH,4H,6H,6aH-furo[3,4-d][1,2]oxazol-3-yl}-2-fluorobenzamido)-N-[4-fluoro-3-(trifluoromethyl)phenyl]-6-(trifluoromethyl)-1-benzothiophene-2-carboxamide]
5.88	COc1ccc(C2=NOC3CC(NC(=O)C(C)(C)O)CC23)cc1C(=O)Nc1c(C(=O)Nc2ccc(F)c(C(F)(F)F)c2)sc2cc(C(F)(F)F)ccc12 (centres unmarked) [Example 260, N-[4-fluoro-3-(trifluoromethyl)phenyl]-3-{5-[5-(2-hydroxy-2-methyl-propanamido)-3aH,4H,5H,6H, 6aH-cyclopenta[d] [1,2]oxazol-3-yl]-2-methoxy-benzamido}-6-(trifluoromethyl)-1-benzothiophene-2-carboxamide]
7.04	COc1ccc(C2=NOC3CC(NC(=O)CO)CC23)cc1C(=O)Nc1c(C(=O)Nc2ccc(F)c(C(F)(F)F)c2)sc2cc(C(F)(F)F)ccc12 (centres unmarked) [Example 261, N-[4-fluoro-3-(trifluoromethyl)phenyl]-3-{5-[5-(2-hydroxy-acetamido)-3aH,4H,5H,6H, 6aH-cyclopenta[d] [1,2]oxazol-3-yl]-2-methoxy-benzamido}-6-(trifluoromethyl)-1-benzothiophene-2-carboxamide]
6.13	COc1ccc(C2=NOC3(CCN(C(=O)C(C)(C)CO)CC3)C2)cc1C(=O)Nc1c(C(=O)Nc2ccc(F)c(C(F)(F)F)c2)sc2cc(C(F)(F)F)ccc12 [Example 269, N-(4-fluoro-3-(trifluoromethyl)phenyl)-3-(5-(8-(3-hydroxy-2,2-dimethyl-propanoyl)-1-oxa-2,8-diazaspiro[4.5]dec-2-en-3-yl)-2-methoxy-benzamido)-6-(trifluoromethyl) benzo[b] thiophene-2-carboxamide]
6.27	COc1ccc(C2=NOC3(CCN(C(=O)C(C)(C)O)CC3)C2)cc1C(=O)Nc1c(C(=O)Nc2ccc(F)c(C(F)(F)F)c2)sc2cc(C(F)(F)F)ccc12 [Example 270, N-(4-fluoro-3-(trifluoromethyl)phenyl)-3-(5-(8-(2-hydroxy-2-methylpropanoyl)-1-oxa-2,8-diazaspiro[4.5]dec-2-en-3-yl)-2-methoxy-benzamido)-6-(trifluoromethyl) benzo[b] thiophene-2-carboxamide]
6.42	COc1ccc(C2=NOC3(CCN(C(=O)CO)CC3)C2)cc1C(=O)Nc1c(C(=O)Nc2ccc(F)c(C(F)(F)F)c2)sc2cc(C(F)(F)F)ccc12 [Example 271, N-(4-fluoro-3-(trifluoromethyl)phenyl)-3-(5-(8-(2-hydroxyacetyl)-1-oxa-2,8-diazaspiro[4.5]dec-2-en-3-yl)-2-methoxy-benzamido)-6-(trifluoromethyl) benzo[b] thiophene-2-carboxamide]
6.05	COc1ccc(C2=NOC3(CCNCC3)C2)cc1C(=O)Nc1c(C(=O)Nc2ccc(F)c(C(F)(F)F)c2)sc2cc(C(F)(F)F)ccc12 [Example 272, N-(4-fluoro-3-(trifluoromethyl)phenyl)-3-(2-methoxy-5-(1-oxa-2,8-diazaspiro[4.5]dec-2-en-3-yl)benzamido)-6-(trifluoromethyl) benzo[b] thiophene-2-carboxamide]
6.07	COc1ccc(-c2cc(CN(C)C)on2)cc1C(=O)Nc1c(C(=O)Nc2ccc(F)c(C(F)(F)F)c2)sc2cc(C(F)(F)F)ccc12 [Example 273, 3-(5-(5-((dimethylamino)methyl)isoxazol-3-yl)-2-methoxy-benzamido)-N-(4-fluoro-3-(trifluoromethyl)phenyl)-6-(trifluoromethyl) benzo[b] thiophene-2-carboxamide]
6.56	COc1ccc(-c2noc(C(C)(C)CO)n2)cc1C(=O)Nc1c(C(=O)Nc2ccc(F)c(C(F)(F)F)c2)sc2cc(C(F)(F)F)ccc12 [Example 274, N-(4-fluoro-3-(trifluoromethyl)phenyl)-3-(5-(5-(1-hydroxy-2-methylpropan-2-yl)-1,2,4-oxadiazol-3-yl)-2-methoxy-benzamido)-6-(trifluoromethyl) benzo[b] thiophene-2-carboxamide]
6.36	COc1ccc(-c2cc([C@@H](C)O)on2)cc1C(=O)Nc1c(C(=O)Nc2ccc(F)c(C(F)(F)F)c2)sc2cc(C(F)(F)F)ccc12 [Example 275, (R)-N-(4-fluoro-3-(trifluoromethyl)phenyl)-3-(5-(5-(1-hydroxyethyl)isoxazol-3-yl)-2-methoxy-benzamido)-6-(trifluoromethyl) benzo[b] thiophene-2-carboxamide]
6.69	COc1ccc(-c2cc(C(C)(C)O)on2)cc1C(=O)Nc1c(C(=O)Nc2ccc(F)c(C(F)(F)F)c2)sc2cc(C(F)(F)F)ccc12 [Example 276, N-(4-fluoro-3-(trifluoromethyl)phenyl)-3-(5-(5-(2-hydroxypropan-2-yl)isoxazol-3-yl)-2-methoxy-benzamido)-6-(trifluoromethyl) benzo[b] thiophene-2-carboxamide]
6.40	COc1ccc(-c2nc(N3CCOCC3)no2)cc1C(=O)Nc1c(C(=O)Nc2ccc(F)c(C(F)(F)F)c2)sc2cc(C(F)(F)F)ccc12 [Example 277, N-[4-fluoro-3-(trifluoromethyl)phenyl]-3-{2-methoxy-5-[3-(morpholin-4-yl)-1,2,4-oxadiazol-5-yl]benzamido}-6-(trifluoromethyl)-1-benzothiophene-2-carboxamide]
